In series [1] the target is T1, Prostaglandin G/H synthase 1 (Homo sapiens, UniProt P23219). The series is described as follows: Inhibitory activity against Human Prostaglandin G/H synthase 1 in U937 Microsome COX-1 assay.
The target of series [2] is T1, Prostaglandin G/H synthase 1. It counts as tissue-based, Blood.
Description: Inhibitory activity against Prostaglandin G/H synthase 1 in human whole blood
The target is the same in series [3]. In words: In vitro inhibitory activity against Prostaglandin G/H synthase 1 in human whole blood assay.
Series [4] deals with Rattus norvegicus. In words: In vivo effective concentration of compound in rat pyresis. It counts as functional.
In series [5] the test system is Rattus norvegicus. The series is described as follows: In vivo effective concentration of compound in rat hyperalgesia. Type of series: functional.
The test system of series [6] is Rattus norvegicus. The series is described as follows: In vivo effective concentration of compound in rat adjuvant arthritis. It counts as functional.
The subject of series [7] is Rattus norvegicus. In words: In vivo effective concentration of compound in rat paw edema. It counts as functional.
Series [8] deals with T1, Prostaglandin G/H synthase 1. In words: Inhibitory activity against Human Cyclooxygenase-1 ( COX-1 ) in U937 Microsome COX-1 assay.
A short description of series [9]: Half life by ''Cr'' assay in rhesus monkey at a dose of 5 mg/kg. It counts as ADME, organism-based. Set-up: dose 5 mg/kg. The note with it: cercopithecidae, in vivo.
A short description of series [10]: Maximal concentration (Cmax) in rhesus monkey plasma at a dose of 5 mg/kg. To be noted: cercopithecidae. The arrangement: dose 5 mg/kg. Type of series: ADME, organism-based.
A short description of series [11]: Half life by ''Cr'' assay in dog at a dose of 5 mg/kg. Type of series: ADME, organism-based, Canis lupus familiaris. The arrangement: dose 5 mg/kg. To be noted: in vivo.
The target of series [12] is T1, Prostaglandin G/H synthase 1. The series is described as follows: Inhibitory activity against Human Prostaglandin G/H synthase 1 in U937 Microsome COX-1 assay at a concentration of 30 uM.
The nature of series [13]: Half life the of compound was determined by ''Cr'' assay in squirrel monkey at a dose of 5 mg/kg. It counts as ADME, organism-based. The arrangement: dose 5 mg/kg. The note with it: in vivo.
Series [14] is described as follows: Maximal concentration (Cmax) in the rat plasma at a dose of 10 mg/kg. Type of series: ADME, organism-based. The arrangement: dose 10 mg/kg.
Series [15] can be described thus: Maximal concentration (Cmax) in dog plasma at a dose of […] mg/kg. To be noted: 5 mg/kg. It counts as ADME, organism-based, Canis lupus familiaris.
Series [16] in a line: Half life the of compound was determined by ''Cr'' assay in rat at a dose of 10 mg/kg. Set-up: dose 10 mg/kg. Type of series: ADME, organism-based. To be noted: in vivo.
The nature of series [17]: Maximal concentration (Cmax) in squirrel monkey plasma at a dose of 5 mg/kg. Set-up: dose 5 mg/kg. Type of series: ADME, organism-based.

T1 sequence (P23219 whole entry): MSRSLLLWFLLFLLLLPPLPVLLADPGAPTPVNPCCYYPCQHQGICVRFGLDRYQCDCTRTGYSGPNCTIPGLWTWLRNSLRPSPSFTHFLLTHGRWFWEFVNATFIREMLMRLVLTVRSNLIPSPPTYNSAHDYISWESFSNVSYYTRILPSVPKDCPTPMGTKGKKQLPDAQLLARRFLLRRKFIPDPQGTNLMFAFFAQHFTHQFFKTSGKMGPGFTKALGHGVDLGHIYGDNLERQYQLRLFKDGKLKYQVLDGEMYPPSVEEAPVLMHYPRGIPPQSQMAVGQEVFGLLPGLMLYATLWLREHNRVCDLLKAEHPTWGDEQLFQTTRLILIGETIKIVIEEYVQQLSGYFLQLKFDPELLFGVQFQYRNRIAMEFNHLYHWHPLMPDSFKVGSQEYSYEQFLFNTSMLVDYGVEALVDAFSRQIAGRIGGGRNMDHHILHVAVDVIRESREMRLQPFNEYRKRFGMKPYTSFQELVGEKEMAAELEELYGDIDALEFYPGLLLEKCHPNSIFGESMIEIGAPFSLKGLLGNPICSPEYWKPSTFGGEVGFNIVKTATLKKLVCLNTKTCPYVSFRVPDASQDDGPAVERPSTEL

Regarding `CC1(C)OC(=O)C(OCC2CC2)=C1c1ccc(S(C)(=O)=O)cc1` [FIROCOXIB], the values for the IC50 in [1] and in series [2] were 25 µM and more than 100 µM, respectively.
In series [2], `CC1(C)OC(=O)C(OC2CCC2)=C1c1ccc(S(C)(=O)=O)cc1` had a half-maximal inhibitory concentration (IC50) of 30 µM.
With `CC1(C)OC(=O)C(OC2CCCCC2)=C1c1ccc(S(C)(=O)=O)cc1`, in [3], the half-maximal inhibitory concentration (IC50) was more than 58 µM.
In turn, `CCC(C)OC1=C(c2ccc(S(C)(=O)=O)cc2)C(C)(C)OC1=O` (configuration not stated) gave an IC50 in [2] of 10 µM.
In the case of `CC1(C)OC(=O)C(OC2CCCC2)=C1c1ccc(S(C)(=O)=O)cc1`, the IC50 in [2] was more than 100 µM.
Still for that read-out and setting: the result for `CCC(CC)OC1=C(c2ccc(S(C)(=O)=O)cc2)C(C)(C)OC1=O` reads 39 µM.
On to `COc1ccc2c(c1)c(CC(=O)O)c(C)n2C(=O)c1ccc(Cl)cc1` [INDOMETHACIN], for which the ED50 in the series on Rattus norvegicus [4] is 1.1 mg/kg; with Rattus norvegicus [5], 1.5 mg/kg; in the series with Rattus norvegicus [6], 0.2 mg/kg; with Rattus norvegicus [7], 2 mg/kg.
As for `CC(OC1=C(c2ccc(S(C)(=O)=O)cc2)C(C)(C)OC1=O)C1CC1` (configuration not stated), the half-maximal inhibitory concentration (IC50) in series [8] was 6.5 µM; in series [2], 36 µM.
Turning to `CC(C)OC1=C(c2ccc(S(C)(=O)=O)cc2)C(C)(C)OC1=O`, the 50% effective dose (ED50) in the series on Rattus norvegicus [4] was determined as 0.3 mg/kg; with Rattus norvegicus [5] it was 0.8 mg/kg; in the series with Rattus norvegicus [6] it was 0.15 mg/kg; with Rattus norvegicus [7], 0.8 mg/kg. Moreover, the half-life in series [9] is 2 h; in series [11] it was 4.8 h; in series [13], 1.4 h; in [16], 7.1 h. For the same molecule, the maximum concentration (Cmax) in [10] is 3 µM; in series [14], 15 µM; in series [15], 12 µM; in series [17], 5.5 µM. The same molecule returned an inhibition in [12] of 32%. This molecule also gave a half-maximal inhibitory concentration (IC50) in [2] of more than 100 µM.

The term IC50 denotes the point on the concentration scale where inhibition reaches its midpoint. Broadly, the ED50 is the dose that gives a 50% effect, or the effect in half of the subjects. What is called half-life is the time needed for the level to fall by half in the phase considered. The Cmax is the peak of the concentration-time curve. The term inhibition denotes the change of the read-out against control, counted positive when it falls.

For the origin of these results see ChEMBL document CHEMBL1131821, “SAR in the alkoxy lactone series: the discovery of DFP, a potent and orally active COX-2 inhibitor” (Bioorg Med Chem Lett, 1999).
